Reference: ChEMBL document CHEMBL1156408, “Parasitenone, a new epoxycyclohexenone related to gabosine from the marine-derived fungus Aspergillus parasiticus” (J Nat Prod, 2002)

Columns and labels:
Format in all cases: functional
[1] = Antioxidant activity assessed as nitric oxide radical scavenging activity
[2] = system: Radical scavenging activity; experiment: Antioxidant activity assessed as DPPH free radical scavenging activity
[3] = Antioxidant activity assessed as peroxy nitrite free radical scavenging activity
[4] = Antioxidant activity assessed as superoxide radical scavenging activity

| SMILES | IC50 [1] | IC50 [2] | IC50 [3] | IC50 [4] |
| --- | --- | --- | --- | --- |
| CC1(C)N([O])C(c2ccc(C(=O)O)cc2)=[N+]([O-])C1(C)C | 138 µM | – | – | – |
| OCc1cc(O)c(O)c(Cl)c1 | 0.5 µM | 0.6 µM | 3.1 µM | 11 µM |
| OCc1cc(O)ccc1O [GENTISYL ALCOHOL] | 0.4 µM | 1.4 µM | 2.2 µM | > 50 µM |
| O=C1C=C(CO)[C@H](O)[C@@H]2O[C@H]12 [PARASITENONE] | – | 57 µM | 52.6 µM | – |
